Assay results from publication PMC5460289, “Identification of New Shikonin Derivatives as Antitumor Agents Targeting STAT3 SH2 Domain” (Scientific Reports, 2017).

Key:
STAT1 = assay: Western blot of STAT1 phosphorylation and expression; assay type: cell-based, human; settings: MDA-MB-231
Experimental: Figure 6 (A) PMM-172 suppressed constitutive pSTAT3 (Tyr705) in a dose-dependent manner. (B) PMM-172 suppressed constitutive pSTAT3 (Tyr705) in a time-dependent manner. (C) MDA-MB-231 cells were treated with IL-6 (20 ng/mL) or vehicle for 30 min, with or without pretreatment with PMM-172 (2 μM) for 24 h. PMM-172 inhibited IL-6 induced phosphorylation of STAT3. (D) Stattic suppressed constitutive pSTAT3 (Tyr705) in a dose-dependent manner. (E) Stattic suppressed constitutive pSTAT3 (Tyr705) in a time-dependent manner. (F) Tyrosine phosphorylation of two STAT family proteins STAT1 and STAT5 were detected with specific antibodies. […] Data were shown as mean ± SD of three independent experiments. *P < 0.05, **P < 0.01. Cropped blots/gels were used in the figure and the gels had been run under the same experimental conditions; the full-length blots/gels are presented in Supplementary Figure S2.
Subsequently, we evaluated the phosphorylation level of other STAT family proteins including STAT1 and STAT5.
Cells were rinsed twice with cold PBS and then lysed with RIPA buffer containing a protease inhibitor mixture at 1:100 dilution on ice for 30 min. Insoluble components of cell lysates were removed by centrifugation (4 °C, 12000 rmp, 10 min), and protein concentrations were measured using a Pierce BCA protein assay kit. […]

BT-474 = assay: MTT anti-proliferation assay; assay type: cell-based, human; settings: Homo sapiens, BT-474, 24 h treatment
Experimental: (§1) Initial experiments were performed for evaluation of growth inhibition by the new compounds against six human breast cancer cell lines, including MCF-7 (ER+/PR+, HER-2-), BT474 (ER+/PR+, HER-2+), SKBR-3 (ER-/PR-/HER-2+), MDA-MB-436 (ER-/PR-/HER-2-), MDA-MB-231 (ER-/PR-/HER-2-), MDA-MB-468 (ER-/PR-/HER-2-) and non-tumorigenic MCF-10A cells. After 24 h treatment by the obtained compounds, the inhibition was assessed and the IC50 was summarized. […] Subsequently, the inhibition of STAT3 activation by PMM-172 and Stattic was evaluated using a dual-luciferase assay.
(§2) The anti-proliferative activities of the prepared compounds against MCF-7 (ER+/PR+, HER-2-), BT474 (ER+/PR+, HER-2+), SKBR-3 (ER-/PR-/HER-2+), MDA-MB-436 (ER-/PR-/HER-2-), MDA-MB-231 (ER-/PR-/HER-2-), MDA-MB-468 (ER-/PR-/HER-2-) and non-tumorigenic MCF-10A cell lines were evaluated using a standard (MTT)-based colorimetric assay with some modification. Cell lines were grown to log phase in DMEM supplemented with 10% fetal bovine serum. Cell suspensions were prepared and 100 μL/well dispensed into 96-well plates giving 10^4 cells/well. The subsequent incubation was permitted at 37 °C, 5% CO2 atmosphere for 24 h to allow the cells to reattach. Subsequently, cells were treated with the target compounds at increasing concentrations in the presence of 10% FBS for 24 h. Then, cell viability was assessed by the conventional 3-(4, 5-dimethylthiazol-2-yl)-2, 5-diphenyltetrazolium bromide (MTT) reduction assay and carried out strictly according to the manufacturer instructions. The absorbance (OD570) was read on an ELISA reader (Tecan, Austria). In all experiments, three replicate wells were used for each drug concentration. Each assay was carried out for at least three times.

SKBR-3 = assay: MTT anti-proliferation assay; assay type: cell-based, human; settings: Homo sapiens, SK-BR-3, 24 h treatment
Experimental: as §1, §2

MDA-MB-231 = assay: MTT anti-proliferation assay; assay type: cell-based, human; settings: Homo sapiens, MDA-MB-231, 24 h treatment
Experimental: as §1, §2

MCF-7 = assay: MTT anti-proliferation assay; assay type: cell-based, human; settings: Homo sapiens, MCF7, 24 h treatment
Experimental: as §1, §2

MDA-MB-468 = assay: MTT anti-proliferation assay; assay type: cell-based, human; settings: Homo sapiens, MDA-MB-468, 24 h treatment
Experimental: as §1, §2

MDA-MB-436 = assay: MTT anti-proliferation assay; assay type: cell-based, human; settings: Homo sapiens, MDA-MB-436, 24 h treatment
Experimental: as §1, §2

[1] = MTT anti-proliferation assay, non-tumorigenic cells; assay type: cell-based; settings: human, non-tumorigenic MCF-10A cells, 24 h treatment
Experimental: as §1, §2

IC50 (BT-474): 5.26 ± 0.66 µM | IC50 (SKBR-3): 3.14 ± 0.46 µM | IC50 (MDA-MB-231): 1980 ± 490 nM | IC50 (MCF-7): 4.87 ± 0.55 µM | IC50 (MDA-MB-468): 3.24 ± 0.27 µM | IC50 (MDA-MB-436): 3.07 ± 0.47 µM
SMILES: COc1cc(OC)cc(-c2nnc(SCC(=O)O[C@H](CC=C(C)C)C3=CC(=O)c4c(O)ccc(O)c4C3=O)o2)c1 [PMM-172, (R)-1-(5,8-dihydroxy-1,4-dioxo-1,4-dihydronaphthalen-2-yl)-4-methylpent-3-en-1-yl 2-((5-(3,5-dimethoxyphenyl)-1,3,4-oxadiazol-2-yl)thio)acetate]
phosphorylation and expression of STAT1 (STAT1): inhibited neither the phosphorylation nor expression | CC50 at 24 h [1]: 95.4 ± 0.62 µM
